Reference: patent US9532990B2 (Zhejiang DTRM Biopharma Co. Ltd., priority 2014, dated 2017)
Read-outs that look alike come from different tables or passages of the source.

Molecular target: BTK wild type (Homo sapiens (Human), UniProt Q06187)
Test: Inhibition assay of BTK kinase activity (HTRF)
Format: biochemical
Experimental: Inhibition Assay of BTK Kinase Activity:
The enzyme reaction mixture of BTK wild type standard HTRF assay contained 1 nM BTK wild type, 1 μM biotin-TK1 peptide, and 30 μM ATP in a buffer. The enzyme reaction were carried out at room temperature for 60 minutes. […] The plates were incubated at room temperature for 60 minutes and then read in the Envision plate reader.

[1] = all compounds with IC50 of less 10 nM, read-out: IC50 (BTK)

Chain of BTK wild type (Q06187 whole entry): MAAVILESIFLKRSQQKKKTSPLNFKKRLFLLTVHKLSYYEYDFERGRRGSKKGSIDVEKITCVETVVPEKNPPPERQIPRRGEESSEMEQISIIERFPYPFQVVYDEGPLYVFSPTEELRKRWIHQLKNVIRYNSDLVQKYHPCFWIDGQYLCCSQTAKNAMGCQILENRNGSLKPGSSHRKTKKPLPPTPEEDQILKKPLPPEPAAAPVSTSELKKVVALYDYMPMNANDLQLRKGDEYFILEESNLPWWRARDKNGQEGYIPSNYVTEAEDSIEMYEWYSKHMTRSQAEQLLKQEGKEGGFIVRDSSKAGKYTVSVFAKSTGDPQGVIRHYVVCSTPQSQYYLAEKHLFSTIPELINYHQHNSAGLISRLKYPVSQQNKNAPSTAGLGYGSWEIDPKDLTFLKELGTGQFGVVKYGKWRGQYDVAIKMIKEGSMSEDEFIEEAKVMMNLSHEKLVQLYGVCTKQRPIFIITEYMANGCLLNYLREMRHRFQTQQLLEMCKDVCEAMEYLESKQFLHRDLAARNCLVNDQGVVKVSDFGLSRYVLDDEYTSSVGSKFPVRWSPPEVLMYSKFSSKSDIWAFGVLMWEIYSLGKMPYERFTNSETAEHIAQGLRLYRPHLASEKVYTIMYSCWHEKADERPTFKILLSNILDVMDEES

SMILES	IC50 [nM]	IC50 (read-out: BTK IC50) [nM]	IC50 [1] [nM]
C=CC(=O)NC(C)(C)Cn1nc(-c2ccc(Oc3c(F)c(F)cc(F)c3F)cc2F)c2c(N)ncnc21 [Compound 87, N-(1-(4-amino-3-(2-fluoro-4-(2,3,5,6-tetrafluorophenoxy)phenyl)-1H-pyrazolo[3,4-d]pyrimidin-1-yl)-2-methylpropan-2-yl)acrylamide]	< 10	8	
C=CC(=O)N1CC[C@@H](n2nc(-c3ccc(Oc4ccnc(C(=O)NC)c4)cc3F)c3c(N)ncnc32)C1 [Compound 88, 4-(4-(1-((R)-1-acryloylpyrrolidin-3-yl)-4-amino-1H-pyrazolo[3,4-d]pyrimidin-3-yl)-3-fluorophenoxy)-N-methylpicolinamide]		11	
C=CC(=O)N1CC[C@@H](n2nc(-c3ccc(Oc4ccnc5cc(OC)c(OC)cc45)cc3F)c3c(N)ncnc32)C1 [Compound 89, 1-((R)-3-(4-amino-3-(4-(6,7-dimethoxyquinolin-4-yloxy)-2-fluorophenyl)-1H-pyrazolo[3,4-d]pyrimidin-1-yl)pyrrolidin-1-yl)prop-2-en-1-one]		25	
C=CC(=O)N1CC[C@@H](n2nc(-c3ccc(Oc4ccnc5ccccc45)cc3F)c3c(N)ncnc32)C1 [Compound 90, 1-((R)-3-(4-amino-3-(2-fluoro-4-(quinolin-4-yloxy)phenyl)-1H-pyrazolo[3,4-d]pyrimidin-1-yl)pyrrolidin-1-yl)prop-2-en-1-one]		15	
CN(C)C/C=C/C(=O)N1CC[C@@H](n2nc(-c3ccc(Oc4c(F)c(F)cc(F)c4F)cc3F)c3c(N)ncnc32)C1 [Compound 91, (E)-1-((R)-3-(4-amino-3-(2-fluoro-4-(2,3,5,6-tetrafluorophenoxy)phenyl)-1H-pyrazolo[3,4-d]pyrimidin-1-yl)pyrrolidin-1-yl)-4-(dimethylamino)but-2-en-1-one]		3	< 10
Nc1ncnc2c1c(-c1ccc(Oc3c(F)c(F)cc(F)c3F)cc1F)nn2[C@@H]1CCN(C(=O)/C=C/c2ccccc2)C1 [Compound 92, (E)-1-((R)-3-(4-amino-3-(2-fluoro-4-(2,3,5,6-tetrafluorophenoxy)phenyl)-1H-pyrazolo[3,4-d]pyrimidin-1-yl)pyrrolidin-1-yl)-3-phenylprop-2-en-1-one]		2400	
Nc1ncnc2c1c(-c1ccc(Oc3c(F)c(F)cc(F)c3F)cc1F)nn2[C@@H]1CCN(C(=O)/C=C/c2ccccc2F)C1 [Compound 93, (E)-1-((R)-3-(4-amino-3-(2-fluoro-4-(2,3,5,6-tetrafluorophenoxy)phenyl)-1H-pyrazolo[3,4-d]pyrimidin-1-yl)pyrrolidin-1-yl)-3-(2-fluorophenyl)prop-2-en-1-one]		2650	
C=CC(=O)N1CC[C@@H](n2nc(-c3ccc(Oc4cccc(F)c4)cc3F)c3c(N)ncnc32)C1 [Compound 94, 1-((R)-3-(4-amino-3-(2-fluoro-4-(3-fluorophenoxy)phenyl)-1H-pyrazolo[3,4-d]pyrimidin-1-yl)pyrrolidin-1-yl)prop-2-en-1-one]		1	< 10
C=CC(=O)N1CC[C@@H](n2nc(-c3ccc(Oc4ncccn4)cc3F)c3c(N)ncnc32)C1 [Compound 95, 1-((R)-3-(4-amino-3-(2-fluoro-4-(pyrimidin-2-yloxy)phenyl)-1H-pyrazolo[3,4-d]pyrimidin-1-yl)pyrrolidin-1-yl)prop-2-en-1-one]		5	< 10
C=CC(=O)N1CC[C@@H](n2nc(-c3ccc(Oc4nccc(Cl)n4)cc3F)c3c(N)ncnc32)C1 [Compound 96, 1-((R)-3-(4-amino-3-(4-(4-chloropyrimidin-2-yloxy)-2-fluorophenyl)-1H-pyrazolo[3,4-d]pyrimidin-1-yl)pyrrolidin-1-yl)prop-2-en-1-one]		13	
C=CC(=O)N1CC[C@@H](n2nc(-c3ccc(Oc4nccc(C(F)(F)F)n4)cc3F)c3c(N)ncnc32)C1 [Compound 97, 1-((R)-3-(4-amino-3-(2-fluoro-4-(4-(trifluoromethyl)pyrimidin-2-yloxy)phenyl)-1H-pyrazolo[3,4-d]pyrimidin-1-yl)pyrrolidin-1-yl)prop-2-en-1-one]		6	
N#C/C=C\C(=O)N1CC[C@@H](n2nc(-c3ccc(Oc4c(F)c(F)cc(F)c4F)cc3F)c3c(N)ncnc32)C1 [Compound 98, (Z)-4-((R)-3-(4-amino-3-(2-fluoro-4-(2,3,5,6-tetrafluorophenoxy)phenyl)-1H-pyrazolo[3,4-d]pyrimidin-1-yl)pyrrolidin-1-yl)-4-oxobut-2-enenitrile]		2	< 10
Nc1ncnc2c1c(-c1ccc(Oc3c(F)c(F)cc(F)c3F)cc1F)nn2[C@@H]1CCCN(C(=O)CCl)C1 [Compound 99, 1-((R)-3-(4-amino-3-(2-fluoro-4-(2,3,5,6-tetrafluorophenoxy)phenyl)-1H-pyrazolo[3,4-d]pyrimidin-1-yl)piperidin-1-yl)-2-chloroethanone]		2	< 10
Nc1ncnc2c1c(-c1ccc(Oc3c(F)c(F)cc(F)c3F)cc1F)nn2[C@H]1CCCN(C(=O)CCl)C1 [Compound 100, 1-((S)-3-(4-amino-3-(2-fluoro-4-(2,3,5,6-tetrafluorophenoxy)phenyl)-1H-pyrazolo[3,4-d]pyrimidin-1-yl)piperidin-1-yl)-2-chloroethanone]		2	< 10
Nc1ncnc2c1c(-c1ccc(Oc3c(F)c(F)cc(F)c3F)cc1F)nn2[C@@H]1CCCN(C(=O)C(Cl)Cl)C1 [Compound 101, 1-((R)-3-(4-amino-3-(2-fluoro-4-(2,3,5,6-tetrafluorophenoxy)phenyl)-1H-pyrazolo[3,4-d]pyrimidin-1-yl)piperidin-1-yl)-2,2-dichloroethanone]		525	
Nc1ncnc2c1c(-c1ccc(Oc3c(F)c(F)cc(F)c3F)cc1F)nn2[C@H]1CCCN(C(=O)C(Cl)Cl)C1 [Compound 102, 1-((S)-3-(4-amino-3-(2-fluoro-4-(2,3,5,6-tetrafluorophenoxy)phenyl)-1H-pyrazolo[3,4-d]pyrimidin-1-yl)piperidin-1-yl)-2,2-dichloroethanone]		1600	
Nc1ncnc2c1c(-c1ccc(Oc3c(F)c(F)cc(F)c3F)cc1F)nn2[C@@H]1CCN(C(=O)C(Cl)Cl)C1 [Compound 103, 1-((R)-3-(4-amino-3-(2-fluoro-4-(2,3,5,6-tetrafluorophenoxy)phenyl)-1H-pyrazolo[3,4-d]pyrimidin-1-yl)pyrrolidin-1-yl)-2,2-dichloroethanone]		546	
C/C=C/C(=O)N1CC[C@@H](n2nc(-c3ccc(Oc4c(F)c(F)cc(F)c4F)cc3F)c3c(N)ncnc32)C1 [Compound 104, (E)-1-((R)-3-(4-amino-3-(2-fluoro-4-(2,3,5,6-tetrafluorophenoxy)phenyl)-1H-pyrazolo[3,4-d]pyrimidin-1-yl)pyrrolidin-1-yl)but-2-en-1-one]		107	
C=C(C)C(=O)N1CC[C@@H](n2nc(-c3ccc(Oc4c(F)c(F)cc(F)c4F)cc3F)c3c(N)ncnc32)C1 [Compound 105, 1-((R)-3-(4-amino-3-(2-fluoro-4-(2,3,5,6-tetrafluorophenoxy)phenyl)-1H-pyrazolo[3,4-d]pyrimidin-1-yl)pyrrolidin-1-yl)-2-methylprop-2-en-1-one]		589	
C=C(F)C(=O)N1CC[C@@H](n2nc(-c3ccc(Oc4c(F)c(F)cc(F)c4F)cc3F)c3c(N)ncnc32)C1 [Compound 106, 1-((R)-3-(4-amino-3-(2-fluoro-4-(2,3,5,6-tetrafluorophenoxy)phenyl)-1H-pyrazolo[3,4-d]pyrimidin-1-yl)pyrrolidin-1-yl)-2-fluoroprop-2-en-1-one]		3	< 10
Nc1ncnc2c1c(-c1ccc(Oc3c(F)c(F)cc(F)c3F)cc1F)nn2[C@@H]1CCCN(C(=O)CF)C1 [Compound 107, 1-((R)-3-(4-amino-3-(2-fluoro-4-(2,3,5,6-tetrafluorophenoxy)phenyl)-1H-pyrazolo[3,4-d]pyrimidin-1-yl)piperidin-1-yl)-2-fluoroethanone]		101	
Nc1ncnc2c1c(-c1ccc(Oc3c(F)c(F)cc(F)c3F)cc1F)nn2[C@H]1CCCN(C(=O)CF)C1 [Compound 108, 1-((S)-3-(4-amino-3-(2-fluoro-4-(2,3,5,6-tetrafluorophenoxy)phenyl)-1H-pyrazolo[3,4-d]pyrimidin-1-yl)piperidin-1-yl)-2-fluoroethanone]		436	
Nc1ncnc2c1c(-c1ccc(Oc3c(F)c(F)cc(F)c3F)cc1F)nn2[C@@H]1CCN(C(=O)c2ncco2)C1 [Compound 109, ((R)-3-(4-amino-3-(2-fluoro-4-(2,3,5,6-tetrafluorophenoxy)phenyl)-1H-pyrazolo[3,4-d]pyrimidin-1-yl)pyrrolidin-1-yl)(oxazol-2-yl)methanone]		1280	
Nc1ncnc2c1c(-c1ccc(Oc3c(F)c(F)cc(F)c3F)cc1F)nn2[C@@H]1CCN(C(=O)c2nc3ccccc3o2)C1 [Compound 110, ((R)-3-(4-amino-3-(2-fluoro-4-(2,3,5,6-tetrafluorophenoxy)phenyl)-1H-pyrazolo[3,4-d]pyrimidin-1-yl)pyrrolidin-1-yl)(benzo[d]oxazol-2-yl)methanone]		5270	
Nc1ncnc2c1c(-c1ccc(Oc3c(F)c(F)cc(F)c3F)cc1F)nn2[C@@H]1CCN(C(=O)CF)C1 [Compound 111, 1-((R)-3-(4-amino-3-(2-fluoro-4-(2,3,5,6-tetrafluorophenoxy)phenyl)-1H-pyrazolo[3,4-d]pyrimidin-1-yl)pyrrolidin-1-yl)-2-fluoroethanone]		43	
N#CC(=O)N1CC[C@@H](n2nc(-c3ccc(Oc4c(F)c(F)cc(F)c4F)cc3F)c3c(N)ncnc32)C1 [Compound 112, 2-((R)-3-(4-amino-3-(2-fluoro-4-(2,3,5,6-tetrafluorophenoxy)phenyl)-1H-pyrazolo[3,4-d]pyrimidin-1-yl)pyrrolidin-1-yl)-2-oxoacetonitrile]		107	
N#CCN1CC[C@@H](n2nc(-c3ccc(Oc4c(F)c(F)cc(F)c4F)cc3F)c3c(N)ncnc32)C1 [Compound 113, 2-((R)-3-(4-amino-3-(2-fluoro-4-(2,3,5,6-tetrafluorophenoxy)phenyl)-1H-pyrazolo[3,4-d]pyrimidin-1-yl)pyrrolidin-1-yl)acetonitrile]		207	
